Measurements taken from ChEMBL document CHEMBL1201862, “PubChem BioAssay data set” (2004).
Activity calls are given as the source filed them. For most assays here, no stated cut-off is given here; in the data, actives have a measured EC50 and inactives only a lower limit.

Columns and labels:
[1] = NIH-3T3 fibroblast cytotoxicity, dose response, cytotoxicity control, cell-based, fluorescence, Alamar Blue, secondary assay (AID 2327); assay type: functional;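 further: NIH-3T3 mouse fibroblasts cultured with fluconazole at 8 µg/mL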
[2] = fluconazole-exposed Candida albicans growth modulators – fluorescence, retest, confirmation (AID 2467); assay type: functional, cell-based
[3] = molecular target: Serine/threonine-protein phosphatase (Candida dubliniensis (strain CD36 / CBS 7987 / NCPF 3949 / NRRLY-17841) (Yeast), UniProt B9W6M3); experiment: blockers of CaCl2-induced CDRE-lacZ signaling – S. cerevisiae, luminescence, secondary, dose response (AID 2388); assay type: functional, cell-based;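 further: yeast reporter cells carrying a calcineurin-responsive lacZ construct stimulated with calcium chloride; luminescent beta-galactosidase reporter signal in whole cells rather than isolated phosphatase activity; potency for inhibition where a drop in reporter signal means calcineurin blockade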
[4] = molecular target: ATP-dependent molecular chaperone HSP82 (Candida albicans (strain WO-1) (Yeast), UniProt C4YTQ8); experiment: steroid-induced GRE reporter decrease in yeast – S. cerevisiae, luminescence, Hsp90 inhibitor project, dose response (AID 2400); assay type: functional, cell-based;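 further: beta-galactosidase luminescence from glucocorticoid response element reporter as proxy for Hsp90 function; inhibitor potency where signal loss means Hsp90 inhibition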
[5] = molecular target: Voltage-gated inwardly rectifying potassium channel KCNH2 (Homo sapiens, UniProt Q12809); settings: Potency;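 further: confirmatory quantitative high-throughput screen measuring inhibition of hERG channel activity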
Chain of Voltage-gated inwardly rectifying potassium channel KCNH2 (Q12809 whole entry): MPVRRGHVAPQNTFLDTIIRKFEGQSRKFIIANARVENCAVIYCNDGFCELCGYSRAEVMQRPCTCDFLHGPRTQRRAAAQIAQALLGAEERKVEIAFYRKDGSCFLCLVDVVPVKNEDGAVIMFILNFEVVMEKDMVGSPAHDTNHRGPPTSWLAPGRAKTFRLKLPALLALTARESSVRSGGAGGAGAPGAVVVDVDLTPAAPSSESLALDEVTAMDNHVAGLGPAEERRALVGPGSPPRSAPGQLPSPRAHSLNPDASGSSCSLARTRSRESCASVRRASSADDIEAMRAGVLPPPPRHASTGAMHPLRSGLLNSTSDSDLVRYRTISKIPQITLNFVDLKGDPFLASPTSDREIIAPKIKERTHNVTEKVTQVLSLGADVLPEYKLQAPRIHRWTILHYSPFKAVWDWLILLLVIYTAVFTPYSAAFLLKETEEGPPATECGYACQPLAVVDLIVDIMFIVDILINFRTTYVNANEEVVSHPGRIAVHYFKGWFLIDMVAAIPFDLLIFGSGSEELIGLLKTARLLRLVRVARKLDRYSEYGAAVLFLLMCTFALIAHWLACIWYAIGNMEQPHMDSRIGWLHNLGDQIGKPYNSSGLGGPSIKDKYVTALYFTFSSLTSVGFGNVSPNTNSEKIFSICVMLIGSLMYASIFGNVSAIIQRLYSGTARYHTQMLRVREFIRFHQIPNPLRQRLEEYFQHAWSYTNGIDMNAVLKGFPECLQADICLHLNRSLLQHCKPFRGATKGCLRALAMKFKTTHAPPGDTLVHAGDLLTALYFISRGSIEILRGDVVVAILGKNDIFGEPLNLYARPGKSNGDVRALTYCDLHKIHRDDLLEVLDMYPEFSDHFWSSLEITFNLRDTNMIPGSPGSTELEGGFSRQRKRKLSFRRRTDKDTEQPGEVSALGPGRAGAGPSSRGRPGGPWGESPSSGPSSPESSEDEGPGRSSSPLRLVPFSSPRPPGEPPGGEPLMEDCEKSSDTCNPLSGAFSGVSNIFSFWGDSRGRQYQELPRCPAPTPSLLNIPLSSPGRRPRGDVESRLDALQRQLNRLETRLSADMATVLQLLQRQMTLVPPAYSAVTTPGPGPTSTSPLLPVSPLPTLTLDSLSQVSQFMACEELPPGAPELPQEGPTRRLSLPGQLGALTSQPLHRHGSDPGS

Chain of ATP-dependent molecular chaperone HSP82 (C4YTQ8 whole entry): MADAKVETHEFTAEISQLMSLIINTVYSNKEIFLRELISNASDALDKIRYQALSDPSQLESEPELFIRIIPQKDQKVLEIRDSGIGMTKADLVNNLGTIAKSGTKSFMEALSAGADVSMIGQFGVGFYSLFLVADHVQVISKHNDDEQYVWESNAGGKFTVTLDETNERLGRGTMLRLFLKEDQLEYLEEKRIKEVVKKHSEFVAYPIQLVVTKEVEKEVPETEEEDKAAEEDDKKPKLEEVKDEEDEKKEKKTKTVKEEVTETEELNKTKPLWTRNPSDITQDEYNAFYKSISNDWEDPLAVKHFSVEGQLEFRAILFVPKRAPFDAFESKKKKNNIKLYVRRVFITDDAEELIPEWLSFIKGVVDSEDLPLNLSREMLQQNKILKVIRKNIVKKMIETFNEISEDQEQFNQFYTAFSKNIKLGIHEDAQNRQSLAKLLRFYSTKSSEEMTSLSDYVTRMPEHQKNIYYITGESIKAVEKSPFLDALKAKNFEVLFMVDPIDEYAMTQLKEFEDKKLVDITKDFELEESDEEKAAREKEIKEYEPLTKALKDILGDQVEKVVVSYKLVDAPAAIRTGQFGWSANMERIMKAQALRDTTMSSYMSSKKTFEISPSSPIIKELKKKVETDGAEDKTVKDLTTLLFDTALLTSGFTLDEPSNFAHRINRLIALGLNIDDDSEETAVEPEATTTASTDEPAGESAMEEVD
Chain of Serine/threonine-protein phosphatase (B9W6M3 whole entry): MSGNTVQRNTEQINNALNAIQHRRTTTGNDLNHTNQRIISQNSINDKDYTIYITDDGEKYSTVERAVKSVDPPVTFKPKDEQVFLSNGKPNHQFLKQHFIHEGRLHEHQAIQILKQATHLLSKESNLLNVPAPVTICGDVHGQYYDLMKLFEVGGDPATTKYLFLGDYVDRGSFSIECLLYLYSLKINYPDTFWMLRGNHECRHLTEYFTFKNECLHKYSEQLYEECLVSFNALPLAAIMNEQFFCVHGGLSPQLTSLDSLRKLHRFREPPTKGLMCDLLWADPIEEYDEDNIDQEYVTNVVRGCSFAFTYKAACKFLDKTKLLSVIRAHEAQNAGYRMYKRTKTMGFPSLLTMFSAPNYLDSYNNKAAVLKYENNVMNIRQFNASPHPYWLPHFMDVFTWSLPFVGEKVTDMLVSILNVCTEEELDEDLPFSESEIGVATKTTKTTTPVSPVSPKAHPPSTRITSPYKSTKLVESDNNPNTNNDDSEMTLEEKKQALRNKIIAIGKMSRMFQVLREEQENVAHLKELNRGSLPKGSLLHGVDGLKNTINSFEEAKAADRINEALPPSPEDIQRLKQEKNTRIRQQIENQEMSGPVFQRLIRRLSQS

Compound	EC50 [1]	EC50 [2]	EC50 [3]	EC50 [4]	AC50 [5]
CCN=C(S)NNC(=O)c1cc(-c2cc(C)ccc2C)nc2ccccc12	129 µM (active)	0.296 µM (active)	> 180 µM (inactive)	> 150 µM (inactive)	
CCCCNCC					31.6 µM (inconclusive)
